The text below walks through data of patent US8470850B2, “Inhibitors of VEGF receptor and HGF receptor signalling” (MethylGene Inc., priority 2004, dated 2013).

Bounds are passed on as bounds.

The target of one assay is T1, VEGF receptor KDR (Homo sapiens, UniProt P35968).
T1 construct: made in house; host or cells: Sf9 cells (Spodoptera frugiperda), recombinant baculovirus
The experiment in a line: In vitro receptor tyrosine kinase assay (DELFIA), VEGF receptor KDR. Type of assay: biochemical. To be noted: ATP 0.6 uM; enzyme 5 nM; read-out: VEGF (enz.) (IC50). The text has this:
In the case of VEGF receptor KDR a 1.6-kb cDNA corresponding to the catalytic domain of VEGFR2 or KDR (Genbank accession number AF035121 amino acid 806 to 1356) was cloned into the Pst I site of the pDEST20 gateway vector (Invitrogen) for the production of a GST-tagged version of that enzyme.
The GST-VEGFR2806-1356 protein was expressed in Sf9 cells (Spodoptera frugiperda) upon infection with recombinant baculovirus construct.
The supernatant was loaded onto a GST-agarose column (Sigma) equilibrated with PBS pH 7.3. Following a four column volume (CV) wash with PBS pH 7.3+1% Triton X-100 and 4 CV wash with buffer B (50 mM Tris pH 8.0, 20% glycerol and 100 mM NaCl), bound proteins were step eluted with 5 CV of buffer B supplemented with 5 mM DTT and 15 mM glutathion. […] Final GST-VEGFR2806-1356 protein preparations concentrations were about 0.7 mg/ml with purity approximating 70%.

In assay [1] the target is TPR-MET fusion protein (MNNGHOS cell line) (Homo sapiens, UniProt P08581). The experiment in a line: C-Met phosphorylation cell-based assay. Particulars: read-out: C-Met cell-based Y1230-34-35 tpr-met inhibition (IC50); MNNGHOS cells; compounds 3 hours prior to cell lysis.
Description: This test measures the ability of compounds to inhibit HGF stimulated auto-phosphorylation of the c-Met/HGF receptor itself in a whole cell system.
MNNGHOS cell line expressing TPR-MET fusion protein were purchased from ATCC.
Inhibitor of c-Met formulated as 30 mM stocks in DMSO. For MNNGHOS treatments, cells, compounds were added to tissue culture media at indicated doses for 3 hours prior to cell lysis.
Lysate were separated on 5-20% PAGE-SDS and immunoblots were performed using Immobilon P polyvinylidene difluoride membranes (Amersham) according to the manufacturer's instructions for handling. The blots were washed in Tris-buffered saline with 0.1% Tween 20 detergent (TBST). […] Signal was quantitated by densitometry on Alpha-Imager.
Assay [2] addresses recombinant human c-Met/HGF receptor (Homo sapiens, UniProt P08581). The experiment in a line: In vitro receptor tyrosine kinase assay (DELFIA), c-Met/HGF receptor. Particulars: read-out: C-Met (enz.) (IC50); ATP 10 uM; enzyme 25 nM.
Excerpt: These tests measure the ability of compounds to inhibit the enzymatic activity of recombinant human c-Met/HGF receptor and VEGF receptor enzymatic activity.
This construct was used to generate recombinant baculovirus using the Bac-N-Blue™ system according to the manucfacturer's instructions (Invitrogen)
The c-Met IC protein was expressed in Hi-5 cells (Trichoplusia Ni) upon infection with recombinant baculovirus construct. Briefly, Hi-5 cells grown in suspension and maintained in serum-free medium (Sf900 II supplemented with gentamycin) at a cell density of about 2×10^6 cells/ml were infected with the abovementioned viruses at a multiplicity of infection (MOI) of 0.2 during 72 hours at 27° C. with agitation at 120 rpm on a rotary shaker. […] Cell pellets were frozen at −80° C. until purification was performed.
All steps described in cell extraction and purification were performed at 4° C. Frozen Hi-5 cell pellets infected with the C-Met IC recombinant baculovirus were thawed and gently resuspended in Buffer A (20 mM Tris pH 8.0, 10% glycerol, 1 μg/ml pepstatin, 2 μg/ml Aprotinin and leupeptin, 50 μg/ml PMSF, 50 μg/ml TLCK and 10 μM E64, 0.5 mM DTT and 1 mM Levamisole) using 3 mL of buffer per gram of cells. The suspension was Dounce homogenized after which it was centrifuged at 22500 g, 30 min., 4° C. The supernatant (cell extract) was used as starting material for purification of c-Met IC.
The supernatant was loaded onto a QsepharoseFF column (Amersham Biosciences) equilibrated with Buffer B (20 mM Tris pH 8.0, 10% glycerol) supplemented with 0.05M NaCl. […]
Inhibition of c-Met/HGF receptor and VEGFR/KDR was measured in a DELFIA™ assay (Perkin Elmer). […] Phosphorylated product was detected by incubation with Europium-labeled anti-phosphotyrosine MoAb. After washing the plates, bound MoAb was detected by time-resolved fluorescence in a Gemini SpectraMax reader (Molecular Devices).
The test system of the next assay is U87MG. The experiment in a line: In vivo solid tumor disease model, U87MG xenograft. On the set-up: species or system mice. To be noted: 15 mg/kg once daily, IP, vehicle DMSO, 10 days. The text has this:
This test measures the capacity of compounds to inhibit solid tumor growth.
Tumor xenografts were established in the flank of female athymic CD1 mice (Charles River Inc.), by subcutaneous injection of 1×10^6U87, A431 or SKLMS cells/mouse. Once established, tumors were then serially passaged s.c. in nude mice hosts. Tumor fragments from these host animals were used in subsequent compound evaluation experiments. For compound evaluation experiments female nude mice weighing approximately 20 g were implanted s.c. by surgical implantation with tumor fragments of ˜30 mg from donor tumors. When the tumors were approximately 100 mm^3 in size (˜7-10 days following implantation), the animals were randomized a separated into treatment and control groups. Each group contained 6-8 tumor-bearing mice, each of which was ear-tagged and followed individually throughout the experiment
Mice were weighed and tumor measurements are taken by calipers three times weekly, starting on Day 1. These tumor measurements were converted to tumor volume by the well-known formula (L+W/4)^34/3π. The experiment was terminated when the control tumors reached a size of approximately 1500 mm^3. […] In addition to tumor volumes, body weight of animals were monitored twice weekly for up to 3 weeks.

T1 sequence (P35968 806-1356): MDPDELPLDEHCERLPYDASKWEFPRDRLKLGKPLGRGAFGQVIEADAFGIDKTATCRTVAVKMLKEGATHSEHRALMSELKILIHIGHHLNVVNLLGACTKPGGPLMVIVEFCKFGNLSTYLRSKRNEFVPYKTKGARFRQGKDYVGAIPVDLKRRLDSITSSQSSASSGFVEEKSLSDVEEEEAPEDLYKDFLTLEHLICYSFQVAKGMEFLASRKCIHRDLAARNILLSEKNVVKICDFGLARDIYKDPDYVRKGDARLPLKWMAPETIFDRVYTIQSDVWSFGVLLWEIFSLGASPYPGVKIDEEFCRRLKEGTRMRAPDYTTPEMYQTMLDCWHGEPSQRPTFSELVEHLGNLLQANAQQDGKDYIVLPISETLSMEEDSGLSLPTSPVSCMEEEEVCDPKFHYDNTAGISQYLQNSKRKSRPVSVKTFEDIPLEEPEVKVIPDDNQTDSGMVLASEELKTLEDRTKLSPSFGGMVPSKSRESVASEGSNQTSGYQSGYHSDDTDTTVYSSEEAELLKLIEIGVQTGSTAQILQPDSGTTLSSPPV
Sequence of recombinant human c-Met/HGF receptor (P08581 1078-1337): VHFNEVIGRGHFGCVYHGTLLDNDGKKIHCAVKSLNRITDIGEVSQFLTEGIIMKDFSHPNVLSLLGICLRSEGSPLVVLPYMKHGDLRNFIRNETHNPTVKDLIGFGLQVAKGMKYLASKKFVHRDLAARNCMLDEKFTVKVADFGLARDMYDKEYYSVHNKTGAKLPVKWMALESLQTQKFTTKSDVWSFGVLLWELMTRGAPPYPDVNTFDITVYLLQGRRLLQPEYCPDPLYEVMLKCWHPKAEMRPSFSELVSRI
Sequence of TPR-MET fusion protein (MNNGHOS cell line) (P08581 with tags, fused parts or gaps): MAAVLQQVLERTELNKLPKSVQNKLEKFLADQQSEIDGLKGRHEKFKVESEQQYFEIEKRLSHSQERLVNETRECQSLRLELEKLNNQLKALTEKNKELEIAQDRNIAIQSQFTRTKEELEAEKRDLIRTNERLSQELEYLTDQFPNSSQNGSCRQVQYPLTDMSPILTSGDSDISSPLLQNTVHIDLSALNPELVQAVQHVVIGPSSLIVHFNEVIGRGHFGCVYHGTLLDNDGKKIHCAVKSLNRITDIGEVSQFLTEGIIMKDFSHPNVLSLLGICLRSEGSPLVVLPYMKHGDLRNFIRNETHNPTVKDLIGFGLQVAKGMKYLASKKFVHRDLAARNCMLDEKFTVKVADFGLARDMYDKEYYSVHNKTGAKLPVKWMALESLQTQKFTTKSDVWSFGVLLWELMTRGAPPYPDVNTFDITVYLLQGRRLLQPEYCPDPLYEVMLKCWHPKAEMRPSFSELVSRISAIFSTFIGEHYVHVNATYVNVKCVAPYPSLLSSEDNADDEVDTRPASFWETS

Broadly, the IC50 is the concentration that gives 50% inhibition. Turning to `O=C(Cc1ccccc1)NC(=S)Nc1ccc(Oc2ccnc3cc(C(=O)N4CCOCC4)sc23)c(F)c1` [Example 3], the results for the IC50 (at VEGF receptor KDR; in assay [1]; in assay [2]) were 250 to 500 nM, 50 to 250 nM and 50 to 250 nM, respectively.

For `CN1CCN(C(=O)c2cc3ncnc(Oc4ccc(NC(=S)NC(=O)Cc5ccccc5)cc4F)c3s2)CC1` [Example 24, 1-(4-(6-(4-N-Methylpiperazylcarbamoyl)thieno[3,2-d]pyrimidin-4-yloxy)-3-fluorophenyl)-3-(2-phenylacetyl)thiourea], the IC50 at VEGF receptor KDR was 250 to 500 nM; in assay [1] it was above 500 nM; in assay [2] it was 50 to 250 nM.

`Cn1cnnc1-c1cc2nccc(Oc3ccc(NC(=S)NC(=O)Cc4ccccc4)cc3F)c2s1` [Example 75, N-(3-Fluoro-4-(2-(4-methyl-4H-1,2,4-triazol-3-yl)thieno[3,2-b]pyridin-7-yloxy)phenylcarbamothioyl)-2-phenylacetamide]: the “Tumor Growth Inhibition (%)” value with U87MG was “d (% TGI in the range of 0-24)”.

For “Methyl 2-(1-(4-(2-(carbamoyl)thieno[3,2-b]pyridin-7-yloxy)-3-fluorophenyl)-3-(2-phenylacetyl)thioureido)propanoate [Example 11]”, the concentration for half-maximal inhibition (IC50) on VEGF receptor KDR is above 500 nM; in assay [1], 50 to 250 nM; in assay [2] it was 50 to 250 nM.
